System: THP-1 macrophages
Assay: Effect of compounds on host cell viability (MTT)
Format: cell-based
Settings: read-out: 24h LC50; THP1 macrophages, 24-hour incubation, MTT assay (Supplemental Table 2)
Description: The cells were cultured at 37C, 5% CO2 in RPMI medium (ATCC) supplemented with 10% FBS, 1% Penicillin/Streptomycin and 0.05 mM of β-mercaptoethanol. Cells were used in experiments up to passage 10.
Effect of the compounds on THP-1 cell viability measured using thiazolyl blue tetrazolium bromide which measures cell metabolic activity (MTT). THP-1 cells were seeded in a 96 well plate (25,000 cells/well) overnight then differentiated with 150 nM phorbol 12-myristate 13-acetate (PMA) over 72 hours. Macrophages were then treated with compounds resuspended in RPMI media (1- 50 μM) for 24 hours. Media was replaced with thiazolyl blue tetrazolium bromide solubilized in RPMI media (0.5 mg/mL) and incubated at 37°C for 2 hours. The reduced formazan crystals were solubilized with isopropyl alcohol and the absorbance of the resulting solution was measured at 560 nm with a background subtraction at 670 nm. […] This process was repeated with a 72-hr incubation and extended concentration range (1 - 300 μM) for select compounds.

SMILES	CC50 [µM]
Cc1cc(C(F)(F)F)n(-c2ccc(NC3CCN(C(=O)OC(C)(C)C)C3)cc2)n1 (stereo not shown) [Compound 282]	> 50
Fc1cccc(CN2CCC(Nc3ccc(-n4nc(C(F)(F)F)cc4C4CCCCC4)cc3)CC2)c1 [Compound 322]	> 50
Nc1ccc(-n2cc(C(F)(F)F)nc2-c2ccc(-c3ccccc3)cc2)cc1 [Compound 33]	1.5
Cc1cc(C(F)(F)F)nn1-c1ccc(Br)cc1 [Compound 275]	> 50
FC(F)(F)c1ccc(-c2cc(C(F)(F)F)nn2CCNC2CCN(Cc3ccccc3)C2)cc1 (stereo not shown) [Compound 294]	28.2
CC(C)(C)OC(=O)N1CCN(c2ccc(-n3nc(C(F)(F)F)cc3-c3ccc(Br)cc3)cc2)CC1 [Compound 41]	> 50
FC(F)(F)c1cc(C2CC2)n(-c2ccc(Br)cc2)n1 [Compound 266]	> 50
O=C(c1ccc(F)cc1)N1CCC(Nc2ccc(-n3nc(C(F)(F)F)cc3-c3ccc(-c4ccc(C(F)(F)F)cc4)cc3)cc2)C1 (stereo not shown) [Compound 59]	> 50
Nc1ccc(-n2cc(C(F)(F)F)nc2-c2ccc(Cl)cc2)cc1 [Compound 30]	> 50
N#Cc1ccc(CN2CCC(Nc3ccc(-n4nc(C(F)(F)F)cc4C4CCCCC4)cc3)C2)cc1 (stereo not shown) [Compound 358]	13.2
Cc1cc(C(F)(F)F)n(-c2ccc(NC3CCNC3)cc2)n1 (stereo not shown) [Compound 284]	> 50
N#Cc1ccc(COC2CCN(c3ccc(-n4nc(C(F)(F)F)cc4C4CCCCC4)cc3)C2)cc1 (stereo not shown) [Compound 413]	> 50
FC(F)(F)c1ccc(-c2ccc(-c3cc(C(F)(F)F)nn3-c3ccc(N4CCC(NCc5cccc(Cl)c5Cl)C4)cc3)cc2)cc1 (stereo not shown) [Compound 13]	> 50
OCCn1nc(C(F)(F)F)cc1-c1ccc(C(F)(F)F)cc1 [Compound 293]	> 50
CCCN(CCC)CCc1c[nH]c2ccccc12 [Compound 411]	> 50
O=[N+]([O-])c1ccc(-n2cc(C(F)(F)F)nc2-c2ccc(Cl)cc2)cc1 [Compound 29]	> 50
NCC(=O)Nc1ccc(-n2cc(C(F)(F)F)nc2C2CCCCC2)cc1 [Compound 327]	> 50
Oc1ccc(CN2CCC(Oc3ccc(-n4nc(C(F)(F)F)cc4C4CCCCC4)cc3)CC2)cc1 [Compound 374]	8.2
Oc1ccc(-n2nc(C(F)(F)F)cc2-c2ccc(-c3ccc(C(F)(F)F)cc3)cc2)cc1 [Compound 27]	> 50
N#Cc1ccc(CN2CCC(Nc3ccc(-n4nc(C(F)(F)F)cc4C4CCCCC4)cc3)CC2)cc1 [Compound 389]	> 50
CC(C)(C)OC(=O)N1CC(Nc2ccc(-n3nc(C(F)(F)F)cc3-c3ccc(-c4ccc(C(F)(F)F)cc4)cc3)cc2)C1 [Compound 56]	> 50
NCC(=O)Nc1ccc(-n2cc(C(F)(F)F)nc2-c2ccc(OC(F)(F)F)cc2)cc1 [Compound 299]	31.6
FC(F)(F)c1ccc(-c2nc(C(F)(F)F)cn2CC2CCNC2)cc1 (stereo not shown) [Compound 292]	> 50
O=[N+]([O-])c1ccc(-n2nc(C(F)(F)F)cc2-c2ccc(-c3ccc(C(F)(F)F)cc3)cc2)cc1 [Compound 9]	> 50
NC(=O)CN1c2ccccc2C2CCCC21 (stereo not shown) [Compound 320]	> 50

SMILES	CC50 [µM]
O=C(OCc1ccccc1)N1CCC(Nc2ccc(-n3nc(C(F)(F)F)cc3-c3ccc(-c4ccc(C(F)(F)F)cc4)cc3)cc2)C1 (stereo not shown) [Compound 6]	> 50
CC(C)(C)c1nc(C(F)(F)F)cn1-c1ccc(Br)cc1 [Compound 329]	> 50
C#Cc1ccc(-c2cc(C(F)(F)F)nn2-c2ccc(N3CCNCC3)cc2)cc1 [Compound 43]	0.5
FC(F)(F)c1c[nH]c(-c2ccc(Cl)cc2)n1 [Compound 35]	> 50
Nc1ccc(-n2nc(C(F)(F)F)cc2C2CCCCC2)cc1 [Compound 338]	> 50
Fc1cccc(CNC2CCN(c3ccc(-n4nc(C(F)(F)F)cc4C4CCCCC4)cc3)C2)c1 (stereo not shown) [Compound 285]	> 50
FC(F)(F)c1cn(-c2ccc(NC3CCNC3)cc2)c(-c2ccncc2)n1 (stereo not shown) [Compound 333]	> 50
NCCNC1CCN(c2ccc(-n3nc(C(F)(F)F)cc3C3CCCCC3)cc2)CC1 [Compound 418]	12.6
Fc1cccc(CN2CCC(Oc3ccc(-n4nc(C(F)(F)F)cc4C4CCCCC4)cc3)C2)c1 (stereo not shown) [Compound 376]	> 50
O=[N+]([O-])c1ccc(-n2nc(-c3ccc(Br)cc3)cc2C(F)(F)F)cc1 [Compound 38]	> 50
CCc1cc(C(F)(F)F)nn1-c1ccc(NC2CCN(C(=O)OC(C)(C)C)C2)cc1 (stereo not shown) [Compound 317]	> 50
CC(C)C#Cc1ccc(-c2cc(C(F)(F)F)nn2-c2ccc(N3CCC(NCc4ccc(O)cc4)C3)cc2)cc1 (stereo not shown) [Compound 101]	0.5
FC(F)(F)c1cc(C(F)(F)F)n(-c2ccc(Br)cc2)n1 [Compound 276]	32.2
CC(C)(C)OC(=O)N1CCC(Oc2ccc(-n3nc(C(F)(F)F)cc3-c3ccc(-c4ccc(C(F)(F)F)cc4)cc3)cc2)CC1 [Compound 28]	> 50
CCCCCCNc1ccc(-n2nc(C(F)(F)F)cc2-c2ccc(-c3ccc(C(F)(F)F)cc3)cc2)cc1 [Compound 60]	> 50
FC(F)(F)c1ccc(-c2cnnn2-c2ccc(NC3CCNCC3)cc2)cc1 [Compound 434]	24.6
CC(C)(C)OC(=O)NC1CN(c2ccc(-n3nc(C(F)(F)F)cc3-c3ccc(-c4ccc(C(F)(F)F)cc4)cc3)cc2)C1 [Compound 22]	> 50
FC(F)(F)c1cc(-c2ccc(Cl)c(Cl)c2)n(-c2ccc(NC3CCNC3)cc2)n1 (stereo not shown) [Compound 261]	22.4
FC(F)(F)c1cc(-c2ccco2)n(-c2ccc(Br)cc2)n1 [Compound 267]	> 50
FC(F)(F)c1cc(C2CCCCC2)n(-c2ccc(OC3CCN(Cc4ccccc4)C3)cc2)n1 (stereo not shown) [Compound 378]	> 50
COc1ccc(-n2nc(C(F)(F)F)cc2C2CCCCC2)cc1 [Compound 363]	> 50
FC(F)(F)c1ccc(-c2ccc(-c3cc(C(F)(F)F)nn3-c3ccc(NC4CCN(Cc5ccc(-c6ccccc6)cc5)C4)cc3)cc2)cc1 (stereo not shown) [Compound 36]	> 50
Fc1ccccc1CNC1CCN(c2ccc(-n3nc(C(F)(F)F)cc3-c3ccc(-c4ccc(C(F)(F)F)cc4)cc3)cc2)C1 (stereo not shown) [Compound 21]	> 50
COc1ccc(CNC2CCN(c3ccc(-n4nc(C(F)(F)F)cc4-c4ccc(-c5ccc(C(F)(F)F)cc5)cc4)cc3)C2)cc1 (stereo not shown) [Compound 14]	50
FC(F)(F)c1cc(C2CCCCC2)n(-c2ccc(N3CCC(OCc4ccccc4)C3)cc2)n1 (stereo not shown) [Compound 412]	> 50

SMILES	CC50 [µM]
Cc1cc(C(F)(F)F)n(-c2ccc(Br)cc2)n1 [Compound 274]	> 50
FC(F)(F)c1ccc(-c2ccc(-c3cc(C(F)(F)F)nn3-c3ccc(Br)cc3)cc2)cc1 [Compound 2]	> 50
O=[N+]([O-])c1ccc(-n2cc(C(F)(F)F)nc2-c2ccc(-c3ccccc3)cc2)cc1 [Compound 32]	6.3
CC(C)(C)OC(=O)N1CCC(Nc2ccc(-n3nc(C(F)(F)F)cc3-c3ccccc3C(F)(F)F)cc2)C1 (stereo not shown) [Compound 259]	23.6
NCC(=O)NCCn1cc(C(F)(F)F)nc1-c1ccc(C(F)(F)F)cc1 [Compound 295]	> 50
CC(C)(C)OC(=O)N1CCC(Nc2ccc(-n3nc(C(F)(F)F)cc3-c3ccc(-c4ccc(C(F)(F)F)cc4)cc3)cc2)C1 (stereo not shown) [Compound 15]	> 50
CC(C)c1cc(C(F)(F)F)nn1-c1ccc(NC2CCN(C(=O)OC(C)(C)C)C2)cc1 (stereo not shown) [Compound 286]	> 50
O=[N+]([O-])c1ccc(-n2nc(C3CCCCC3)cc2C(F)(F)F)cc1 [Compound 335]	> 50
NCC(=O)Nc1ccc(-n2cc(C(F)(F)F)nc2-c2ccccc2C(F)(F)F)cc1 [Compound 297]	> 50
CC(C)(C)OC(=O)N1CCN(c2ccc(-n3nc(C(F)(F)F)cc3-c3ccc(C#CC(F)(F)F)cc3)cc2)CC1 [Compound 47]	> 50
Fc1cccc([C@@H]2CCCN2)c1 [Compound 278]	> 50
N#Cc1ccc(CNC2CCN(c3ccc(-n4nc(C(F)(F)F)cc4-c4ccc(-c5ccc(C(F)(F)F)cc5)cc4)cc3)C2)cc1 (stereo not shown) [Compound 19]	> 50
FC(F)(F)c1cc(C2CCCCC2)n(-c2ccc(N3CCC(OCc4ccccc4)CC3)cc2)n1 [Compound 414]	> 50
FC(F)c1cc(-c2ccc(-c3ccc(C(F)(F)F)cc3)cc2)n(-c2ccc(Br)cc2)n1 [Compound 279]	> 50
CC(C)(C)OC(=O)N1CCC(Nc2ccc(-n3nc(C(F)(F)F)cc3C3CC3)cc2)C1 (stereo not shown) [Compound 268]	> 50
NC(=O)CNc1ccc(-n2cc(C(F)(F)F)nc2-c2ccc(C(F)(F)F)cc2)cc1 [Compound 405]	> 50
FC(F)(F)c1ccc(-c2ccc(-c3cc(C(F)(F)F)nn3-c3ccc(N4CCC(NCc5ccccc5)C4)cc3)cc2)cc1 (stereo not shown) [Compound 16]	> 50
CC(=O)NCCN1CCC(Oc2ccc(-n3nc(C(F)(F)F)cc3C3CCCCC3)cc2)CC1 [Compound 417]	24.4
CC(C)(C)OC(=O)N1CCC(Oc2ccc(-n3nc(C(F)(F)F)cc3C3CCCCC3)cc2)CC1 [Compound 367]	> 50
CC(C)c1cc(C(F)(F)F)nn1-c1ccc(Br)cc1 [Compound 277]	> 50
FC(F)(F)c1ccc(-c2ccc(-c3cc(C(F)(F)F)nn3-c3ccc(N4CCC(NCc5ccccc5Cl)C4)cc3)cc2)cc1 (stereo not shown) [Compound 12]	> 50
O=C(CO)Nc1ccc(-n2cc(C(F)(F)F)nc2-c2ccc(C(F)(F)F)cc2)cc1 [Compound 404]	> 50
FC(F)(F)c1c[nH]c(-c2ccc(-c3ccccc3)cc2)n1 [Compound 31]	> 50

Source: doi:10.1101/2025.11.04.686469, “Discovery of Host-Directed Small Molecules with Broad Anti-Leishmanial Efficacy” (bioRxiv, 2025)
